{"source": "patent US12117387B2", "about": "“Biosensor, method for manufacturing the same, and analysis method using the same” (AJOU UNIVERSITY INDUSTRY-ACADEMIC COOPERATION FOUNDATION, priority 2020, dated 2024)", "test_system": "RAW264.7 cell line", "assay": "Boyden chamber (transwell) macrophage migration versus chemoattractant concentration, retroreflection-based cytometry", "format": "cell-based, rat", "details": "24 hours migration", "experimental": "Experimental Example 3 was conducted to verify that the RAW264.7 cell line cultured in the transwell (the first chamber) coated with the retroreflective particles migrated under influence of monocytechemoattractant protein-1 (MCP-1) as the chemoattractant present in the lower chamber (second chamber), and migrated to the bottom substate of the well plate (the second chamber). In this example, DMEM (Dulbeccos Modified Eagles Medium) was used as the serum-free culture medium in the upper chamber. The culture medium in the lower chamber was composed of 1 ng/ml MCP-1, 10% Fetal Bovine Serum (FBS), and 1% Penicillin streptomycin (PS) based on DMEM (Dulbeccos Modified Eagles Medium). After the first chamber and the second chamber were combined with each other, the cell migration time was specified for 24 hours to observe the cell migration, and the cell migration was observed while culturing the cells in a cell incubator.\nIn Experimental Example 4, an experiment was conducted to verify whether the novel developed retroreflection-based cytometry can be used for an evaluation of cell migration dependence on the concentration of the chemoattractant as used in general cell migration analysis. The MCP-1 introduced into the well plate (the second chamber) was added into the culture medium at a concentration of each of 0, 1, 10, and 100 ng/ml. […]"}
{"substance": "monocytechemoattractant protein-1 [MCP-1]", "values": [{"measurement": "number of migrated cells", "setting": "100 ng/ml MCP-1 compared to each of 1 and 10 ng/ml", "result": "reduced"}, {"measurement": "number of migrated cells", "setting": "MCP-1 concentration increased from 0 to 10 ng/ml", "result": "increased"}]}
